The assay has as its system Plasmodium falciparum. As to the kind of experiment: GSK_TCMDC: Inhibition of Plasmodium falciparum 3D7 in whole erythrocytes, using parasite LDH activity as an index of growth. It is filed as functional, organism-based. Conditions: Plasmodium falciparum, 3D7.

In turn, `Cc1ccc(C(=O)N2CCN(Cc3nccs3)CC2)cc1` yielded an XC50 of 1010 nM.

Turning to `CN1CCC(COc2ccc(CN3CCC(NC(=O)c4cccc(Cl)c4)CC3)cc2)CC1`, the XC50 is 889 nM. The compound `O=C(/C=C/C=C/c1ccccc1)NC1CCC(CN2CCC(c3c[nH]c4ccccc34)CC2)CC1` (stereo not given) showed an XC50 of 868 nM.

Take `CN(C)Cc1ccc(-c2ccc3ccnc(N)c3c2)cc1`: the XC50 was found to be 380 nM. In the case of `Cc1ccc(Nc2nc(C)cc(N3CCN(c4ccccc4)CC3)n2)cc1` it was 1530 nM; in that of `COCCOc1ccc(C(F)(F)F)cc1NC(=O)Cc1c(F)cccc1Cl`, 1000 nM.

`Nc1c2c(nc3cc(NC(=O)c4ccc([N+](=O)[O-])cc4)ccc13)CCCC2` came in with an XC50 of 475 nM. Compound `CN1CC=C(c2c[nH]c3ccc(Sc4ccccc4)cc23)CC1` yielded an XC50 of 356 nM. To `CCCCNCC(O)COc1ccccc1-c1ccc(N/N=C/c2cccc3ccccc23)nn1` (stereo not given) belongs 891 nM; to `CC(Cc1ccc(S(=O)(=O)N(C(C)C)C(C)C)cc1)NCC(O)c1cccc(C(F)(F)F)c1` (stereo not given), 685 nM; to `CCOC(=O)C(NC(=O)c1ccc([N+](=O)[O-])o1)C(C)C` (stereo not given), 1060 nM. As to `O=C(NC1CCC(CCN2Cc3cccc(C(F)(F)F)c3C2)CC1)c1cccc(-c2cccnc2)c1` (stereo not given), the XC50 came to 1020 nM. In the case of `CCCCCC(C)NC[C@@H](O)[C@H](Cc1ccccc1)NC(=O)c1cc(NCC)cc(N2CCCCS2(=O)=O)c1` (stereo not given in full) it was 398 nM. The compound `COc1ccc2nccc([C@@H](O)CN3CCC(NCc4nc5cc(F)ccc5o4)CC3)c2c1` came in with an XC50 of 149 nM. Turning to `CC1(C)N=C(N)N=C(N)C1c1ccc(Cl)cc1` (stereo not given), the XC50 stood at 259 nM.

The compound `Cc1ccc(Nc2nc(N/N=C/c3ccccc3[N+](=O)[O-])nc(Nc3ccc([N+](=O)[O-])cc3)n2)cc1C` displayed an XC50 of 692 nM.

`O=C(C=Cc1ccc(Cl)c(Cl)c1)NCCCCCN1CCC(CCCNS(=O)(=O)c2ccc(F)cc2)CC1` returned an XC50 of 1020 nM. To `O=C(NCCCCN1CCC(c2ccc3c(c2OCCN2CCCC2)CCCC3)CC1)c1ccc(-c2ccc(C(F)(F)F)cc2)cc1` belongs 447 nM. In the case of `Cc1ccc(C(=O)Nc2cccc(-c3ccc(N4CCN(C)CC4)nn3)c2)cc1[N+](=O)[O-]` it was 334 nM; in that of `COc1ccc(CNC(=O)NC2CCN(c3ccnc(Nc4ccc(OC)cc4)n3)C2)cc1` (stereo not given), 1000 nM. Compound `c1ccc2[nH]c(-c3ccc(-c4ccc(CN5CCCCC5)cc4)s3)nc2c1` gave an XC50 of 742 nM. To `CC(C)(C)C(=O)Nc1ccc(C(=O)Nc2cccc(-c3nc4ccccc4[nH]3)c2)cc1` belongs 282 nM. On to `CCCCc1ccc(-c2c(N)nc(N)nc2CC)cc1`, for which the XC50 amounted to 954 nM. To `N=C(N)Nc1nccc(NCc2ccccc2)n1` belongs 895 nM; to `CCCCCCOc1ccc(C(=O)NCCCC2CCN(CCCCCNC(=O)C=Cc3ccc(Cl)c(Cl)c3)CC2)cc1`, 854 nM. In the case of `O=C(NCC1CCCCC1)c1cc(=O)c2ccccc2o1` it was 320 nM. In the case of `Cn1c(CN2CCC(N3CCc4cc(NC(=O)c5ccco5)ccc43)C2)cc2ccccc21` (stereo not given) it was 876 nM; in that of `Cc1nc(C)c(-c2ccc(Oc3ccc(OC(F)(F)F)cc3)cc2)c(OC(=O)c2ccccc2)c1Cl`, 182 nM; in that of `CCCCCCn1ccc2c3c(N)nc(N)nc3ccc21`, 149 nM.

As to `CC1CNC(c2ccc(NC(=O)c3ccc(C(=O)Nc4ccc(C5=NC(C)CN5)cc4)cc3)cc2)=N1` (stereo not given), the XC50 was found to be 33.6 nM.

`CNC(=O)COc1cc(C)c(C2CCN(CCCCNC(=O)c3ccc(-c4ccc(C(F)(F)F)cc4)cc3)CC2)cc1C` had an XC50 of 868 nM.

As for `CC(C)C1c2ccc(O)cc2CC2C(=O)N(C3CCCCC3)C(=O)N21` (stereo not given), the XC50 was 884 nM. In the case of `Cc1nc2ccccn2c1C1(O)C(=O)Nc2c(Cl)cc(Cl)cc21` (stereo not given) it was 1590 nM; in that of `Cc1c(C(=O)C2CC2CN2CCC(N3CCCCC3)CC2)sc2ccccc12` (stereo not given), 1020 nM; in that of `O=C(O)C1Cc2c([nH]c3ccccc23)C(c2ccc(Cl)cc2Cl)N1` (stereo not given), 954 nM. As for `OC(CN1c2ccccc2Sc2ccccc21)CN(C1CCCCC1)C1CCCCC1` (stereo not given), the XC50 is 651 nM.

As to `O=C(NCCCCN1CCC(c2cccc3ccccc23)CC1)c1ccc(NC(=O)c2ccc(Cl)cc2)cc1`, the XC50 turned out to be 784 nM. Compound `Cc1c(C)n(C2CCCC2)c2ncnc(OC3CCN(CC(=O)NC4CC4)CC3)c12` came in with an XC50 of 790 nM. In the case of `COc1ccc2nccc([C@@H](O)CN3CCC(NCCOc4cccc(C(F)(F)F)c4Cl)CC3)c2c1` it was 154 nM; in that of `Clc1cccc(Nc2ccc3c(N4CCCCC4)ncnc3n2)c1`, 577 nM. To `Cc1cc(NC(=O)Nc2cccc(Cl)c2Cl)c2ccccc2n1` belongs 744 nM; to `COc1ccc(Cc2nc(/N=C(\N)Nc3ccccc3)ccc2OC)cc1`, 852 nM. To `FC(F)(F)c1ccccc1OCc1cc(-c2ccncc2)c(COc2ccccc2C(F)(F)F)cc1C1=CCNCC1` belongs 890 nM.

Compound `O=C(Nc1ccc(NC2=NCCN2)cc1)c1ccc(C(=O)Nc2ccc(NC3=NCCN3)cc2)cc1` had an XC50 of 649 nM. As to `COc1ccc(CNCc2cccc(-c3ccc(-c4nc5ccccc5[nH]4)s3)c2)cc1`, the XC50 was found to be 816 nM.

Compound `O=C(N[C@H]1CCN(Cc2ccc(OCCCN3CCCCC3)cc2)C1)c1ccc2ccccc2c1` yielded an XC50 of 764 nM. For `COc1cc(CCN(C)Cc2ccc(OC)c(OC)c2)ccc1NC(=O)c1cccc2c(O)c3cccc(F)c3nc12`, the XC50 turned out to be 203 nM. For `O=C(c1cc(C(=O)Nc2ccccc2)c(=O)n(-c2ccccc2)c1)c1cc(Cl)ccc1O`, the XC50 was found to be 390 nM. The compound `CN1CCC(NCc2ccc(-c3ccc(S(=O)(=O)NC4CCC4)s3)cc2)CC1` gave an XC50 of 846 nM.

`Cc1ccc(C(CC(=O)Nc2nccs2)c2ccc(OC(C)C)cc2)cc1` (stereo not given) yielded an XC50 of 479 nM. `O=C(NCCCCN1CCC(c2ccc(Br)cc2)CC1)c1ccc(NC(=O)c2ccc(Cl)cc2)cc1` returned an XC50 of 712 nM. `COc1ccc(-c2ccc(NC(=O)c3cccc(Cl)c3)cc2)cc1CN1CCC(O)CC1` came in with an XC50 of 712 nM. To `CCN(CCCN1CCCCC1)c1cc(C)nc(Nc2cccc(OC(F)(F)F)c2)n1` belongs 229 nM; to `COc1cc(NC(=O)C(c2ccc(Cl)cc2)C(C)C)cc(OC)c1OC` (stereo not given), 534 nM; to `COc1cccc(NC(=O)Nc2ccc(Nc3nc(C)cc(N(C)C)n3)cc2)c1`, 169 nM. To `CC=CCON1C(=N)NC(=N)NC1(C)C` belongs 27.9 nM; to `CN(C)CCN1CCN(Cc2cccc(-c3csc(-c4nc5ccccc5[nH]4)c3)c2)CC1`, 398 nM.

Take `CC(C)CN(C)c1ncnc2c1nc(-c1cncc(C#N)c1)n2CCNCc1ccccc1`: the XC50 came to 1360 nM. To `CC1CN(Cc2csc(Nc3ccccc3)n2)CC(C)O1` (stereo not given) belongs 1020 nM. In the case of `O=C(NCCCNc1nc2ccccc2[nH]1)c1cccc(OC(F)(F)F)c1` it was 566 nM; in that of `O=C(NCc1ccc(C(=O)NCc2cccc3ccccc23)cc1)c1ccc(O)c(-c2ccc(Cl)c(Cl)c2)c1`, 814 nM. To `Cc1cc(N(C)CCCN(C)C)nc(Nc2ccc(Cl)cc2)n1` belongs 1020 nM; to `O=C(NC1CCN(Cc2ccccc2)C1)c1ccc(Nc2ccc(Br)cc2)nc1` (stereo not given), 1080 nM; to `COc1ccc2c(CCNc3nc(SC)ncc3C(=O)NCCc3ccc(F)cc3)c[nH]c2c1`, 762 nM.

Regarding `CC(CN1CCN(C)CC1)C(=O)Nc1ccc(-c2cccc(-c3nc4cc(F)ccc4[nH]3)c2)cc1` (stereo not given), the XC50 was found to be 522 nM.

The values above are taken from ChEMBL document CHEMBL1157539, “Thousands of chemical starting points for antimalarial lead identification” (Nature, 2010).
